The record followed here is paper PMC9115581, “Synthesis and Biological Evaluations of Betulinic Acid Derivatives With Inhibitory Activity on Hyaluronidase and Anti-Inflammatory Effects Against Hyaluronic Acid Fragment Induced Inflammation” (Frontiers in Chemistry, 2022).

In series [1] the test system is LPS-stimulated RAW264.7 cells. The series can be described thus: NO production (Griess assay) in LPS-stimulated RAW264.7 cells. It is filed as cell-based, murine. The conditions noted are these: for Reduction of LPS-stimulated NO production: 10 μM, LPS 1 μg/mL; for Decrease of NO production as compared to parent compound BA: LPS-stimulated. The method, then: (§1) NO concentration was determined by the Griess assay according to a previous report ([Ma et al., 2016]), RAW264.7 and BV-2 cells (20,000 cells per well) were plated into 96-well plates. After an incubation period of 24 h, the cells were pre-treated with BA derivatives for 2 h and were co-treated with LPS (1 μg/mL) for 24 h. For the LMWHAFs-induced inflammation assay, THP-1 cells were pre-treated with BA derivatives for 2 h and then treated with LPS (1 μg/mL) and HA fragment (a hyaluronan oligosaccharide 6mer; 50 μg/mL) from Amsbio (Rockville, MD, United States; product code: CSR-11002) for 24 h ([Campo et al., 2012]; [Scuruchi et al., 2016]). Subsequently, the culture medium was mixed with the Griess reagent in a 1:1 ratio followed by a 15 min incubation in the dark. An absorbance value was measured at 540 nm using a Spectramax M2 microplate reader, and the NO concentration was calculated based on the standard NO curve.
(In general: The Griess reaction detects nitrite, a stable product of nitric oxide.)

Series [2] relates to LPS-stimulated THP-1 cells. As to the kind of experiment: IL-6 by ELISA in LPS-stimulated THP-1 cells. The series is classed as cell-based, human. Conditions: 10 μM, LPS alone 695.6 pg/mL. The protocol:
To evaluate the effect of BA derivatives on LPS-induced IL-6 secretion, THP-1 monocytes were seeded at a density of 50,000 cells per well in a 48-well plate and differentiated with PMA (25 ng/mL), pre-treated with the BA derivatives at concentrations of 10 μM was performed for 6 h followed by stimulation with or without 1 μg/mL LPS for 12 h. The cell culture supernatant was collected for the measurement of IL-6. The levels of IL-6 were determined using specific ELISA kits (BioLegend, San Diego, CA, United States) ([Liu et al., 2020]).
For orientation: In an ELISA, binding on a coated surface is turned into a signal by an enzyme label.

Series [3] in a line: Cell viability of BV-2 cells. It is filed as cell-based, murine. Conditions: mouse, BV2 cells. The protocol:
The cytotoxicity of each compound was determined in BV-2 and RAW264.7 cells with the MTT assay ([Li et al., 2020]). Briefly, cells were seeded in 96-well plates at 20,000 cells per well. Cells were allowed to adhere for 24 h. BA derivatives were prepared to 100 mM in DMSO, then diluted in serum-free media to yield concentrations of 10 µM. After the treatment of the cells with BA derivatives for 2 h, the cells were incubated in the absence or presence of LPS (1 μg/mL) for 24 h. Cellular viability was determined as a percentage of control (DMSO) by using a Cell Proliferation Kit II (Promega, Madison, WI, United States). XTT reagent (0.3 mg/mL) was then added to each well and incubated for 4 h at 37°C and an absorbance value was measured at 492 nm using a Spectramax M2 microplate reader ([Hayon et al., 2003]).

For series [4], the system named is HA fragment-stimulated THP-1 cells. As to the kind of experiment: NO production in HA fragment (LMWHAFs) stimulated THP-1 cells. The series is classed as cell-based, human. The conditions noted are these: 10 μM, HA fragment 6mer 50 μg/mL. The protocol: as §1
Series [5] has as its system LPS-stimulated BV2 cells. As to the kind of experiment: NO production (Griess assay) in LPS-stimulated BV2 cells. It is filed as cell-based, murine. Conditions: Mus musculus, BV-2, LPS 1 μg/mL. The method, then:
as §1

The structures appear in SMILES notation.

The term viability denotes a read-out of living cells in per cent, often relative to untreated cells. Broadly, the inhibition is how much of the control response was suppressed. Low values mean little suppression, high ones strong suppression. As for `C=C(C)[C@@H]1CC[C@]2(C(=O)O)CC[C@]3(C)[C@H](CC[C@@H]4[C@@]5(C)CC[C@H](O)C(C)(C)[C@@H]5CC[C@]43C)[C@@H]12` [BA, betulinic acid], the “Reduction of LPS-stimulated NO production” value in series [1] is recorded as 20.4%. The “LPS-induced secretion of IL-6” value in series [2] is listed as 613.3 pg/mL. For the same compound, the viability at 10 µM in series [3] was 110%. In series [4], the “Reduction of LMWHAF-stimulated NO production” value turned out to be 12.4%. In series [5], this compound had an inhibition at 10 µM of 3.4%.
Turning to `C=C(C)[C@@H]1CC[C@]2(C(=O)O)CC[C@]3(C)[C@H](CC[C@@H]4[C@@]5(C)C/C(=C\c6ccccc6Br)C(=O)C(C)(C)[C@@H]5CC[C@]43C)[C@@H]12` [BA-02, (1R,3aS,5aR,5bR,7aR,11aR,11bR,13aR,13bR)-10-((E)-2-bromobenzylidene)-5a,5b,8,8,11a-pentamethyl-9-oxo-1-(prop-1-en-2-yl)icosahydro-3aH-cyclopenta[a]chrysene-3a-carboxylic acid], the “LPS-induced secretion of IL-6” value in series [2] is recorded as 586.6 pg/mL.
As to `C=C(C)[C@@H]1CC[C@]2(C(=O)O)CC[C@]3(C)[C@H](CC[C@@H]4[C@@]5(C)C/C(=C\c6cc(OC)ccc6[N+](=O)[O-])C(=O)C(C)(C)[C@@H]5CC[C@]43C)[C@@H]12` [BA-03, (1R,3aS,5aR,5bR,7aR,11aR,11bR,13aR,13bR)-10-((E)-5-methoxy-2-nitrobenzylidene)-5a,5b,8,8,11a-pentamethyl-9-oxo-1-(prop-1-en-2-yl)icosahydro-3aH-cyclopenta[a]chrysene-3a-carboxylic acid], in series [1], the “Reduction of LPS-stimulated NO production” value was determined as 42.9% and the “Decrease of NO production as compared to parent compound BA” value turned out to be 2.3 fold. Moreover, the “LPS-induced secretion of IL-6” value in series [2] amounted to 586.0 pg/mL.
Consider `C=C(C)[C@@H]1CC[C@]2(C(=O)O)CC[C@]3(C)[C@H](CC[C@@H]4[C@@]5(C)C/C(=C\c6cc(F)ccc6[N+](=O)[O-])C(=O)C(C)(C)[C@@H]5CC[C@]43C)[C@@H]12` [BA-04, (1R,3aS,5aR,5bR,7aR,11aR,11bR,13aR,13bR)-10-((E)-5-fluoro-2-nitrobenzylidene)-5a,5b,8,8,11a-pentamethyl-9-oxo-1-(prop-1-en-2-yl)icosahydro-3aH-cyclopenta[a]chrysene-3a-carboxylic acid], for which the “Reduction of LPS-stimulated NO production” value in series [1] was found to be 32.3%. Also, the “LPS-induced secretion of IL-6” value in series [2] is 539.6 pg/mL.
Taken in the same sequence, the figures for `C=C(C)[C@@H]1CC[C@]2(C(=O)O)CC[C@]3(C)[C@H](CC[C@@H]4[C@@]5(C)C/C(=C\c6ccccc6OC)C(=O)C(C)(C)[C@@H]5CC[C@]43C)[C@@H]12` [BA-05, (1R,3aS,5aR,5bR,7aR,11aR,11bR,13aR,13bR)-10-((E)-2-methoxybenzylidene)-5a,5b,8,8,11a-pentamethyl-9-oxo-1-(prop-1-en-2-yl)icosahydro-3aH-cyclopenta[a]chrysene-3a-carboxylic acid] were 38.5% and 589.8 pg/mL.
Take `C=C(C)[C@@H]1CC[C@]2(C(=O)O)CC[C@]3(C)[C@H](CC[C@@H]4[C@@]5(C)C/C(=C\c6cccc(OC)c6)C(=O)C(C)(C)[C@@H]5CC[C@]43C)[C@@H]12` [BA-09]: 10 µM produced 36% inhibition in series [5].
Turning to `C=C(C)[C@@H]1CC[C@]2(C(=O)O)CC[C@]3(C)[C@H](CC[C@@H]4[C@@]5(C)C/C(=C\c6cccc(C(F)(F)F)c6)C(=O)C(C)(C)[C@@H]5CC[C@]43C)[C@@H]12` [BA-11, (1R,3aS,5aR,5bR,7aR,11aR,11bR,13aR,13bR)-5a,5b,8,8,11a-pentamethyl-9-oxo-1-(prop-1-en-2-yl)-10-((E)-3-(trifluoromethyl)benzylidene)icosahydro-3aH-cyclopenta[a]chrysene-3a-carboxylic acid], in series [1], the “Reduction of LPS-stimulated NO production” value is listed as 33.4%. Also, the “Reduction of LMWHAF-stimulated NO production” value in series [4] amounted to 11.3%. The compound also had an inhibition at 10 µM in series [5] of 7.7%.
`C=C(C)[C@@H]1CC[C@]2(C(=O)O)CC[C@]3(C)[C@H](CC[C@@H]4[C@@]5(C)C/C(=C\c6ccc(OC)cc6)C(=O)C(C)(C)[C@@H]5CC[C@]43C)[C@@H]12` [BA-13, (1R,3aS,5aR,5bR,7aR,11aR,11bR,13aR,13bR)-10-((E)-4-methoxybenzylidene)-5a,5b,8,8,11a-pentamethyl-9-oxo-1-(prop-1-en-2-yl)icosahydro-3aH-cyclopenta[a]chrysene-3a-carboxylic acid]: in series [1], the “Reduction of LPS-stimulated NO production” value came out at 46.4% and the “Decrease of NO production as compared to parent compound BA” value was 2.1 fold. In series [4], the “Reduction of LMWHAF-stimulated NO production” value amounted to 35.6%. This compound also yielded an inhibition at 10 µM in series [5] of 33.6%.
